PMC6271731, “Multitarget Molecular Hybrids of Cinnamic Acids” (Molecules, 2014)
Marks after values point to notes of the source that are not given here.

Tests used:
sciatic nerve crush = test: Recovery of motor and sensory functions after sciatic nerve crush; type: in vivo, Wistar rats; conditions: adult rats, intraperitoneally after the compression of the nerve
Method: The locomotor function recovery was examined through the flat runway test, the inclined plane runway test, the grid walking test and the Sciatic Functional Index (SFI) calculation.
One day prior to the surgery and the behavioral testing, Wistar rats were handled by the investigators and introduced to the testing environment for a brief period of time. Rats were anesthetized with chloral hydrate 4.5% (1 mL/100 g). […] After the exposure, the nerve was crushed once for 30 s at standardized force. The muscle was reapproximated and the skin incision was closed using 6 to 0 sutures. The examination of the loss of sensory and motor function in the operated limb established the crush completeness. Digits in the operated limb were pinched with a blunt forceps. Absence of foot withdrawal and vocalization was recorded as loss of sensory and motor function. Animals were placed under a heating lamp until they recovered from the anesthesia and they returned to their home cages.
The tested solutions were freshly prepared on surgery day (day 0).
The animals were subjected to a locomotor testing one day before the surgery and on the 1st, 8th, 15th and 22nd day after the sciatic nerve injury. The day of the surgery is considered as day 0 [36, 37, 38].

[1] = In vitro stability under acidic and basic conditions; type: physicochemical; conditions: pH 3, 4.5 and 9, 37 °C, 24 h
Method: In an attempt to mimic the acidic/basic conditions in the gastrointestinal route, measurements at pH: (i) 3; (ii) 4.5 and (iii) 9 were performed. The pH value was adjusted with the appropriate buffer (CH3COONa/CH3COOH) to 4.5 and 3 and Tris to pH 9. 20 μL of the tested compounds in DMSO and buffer 980 μL (4.5 or 3 pH) incubated at 37 °C for 24 h. The stability of the compounds was monitored chromatographically after 3 and 9 h. After 24 h, the incubated solution (in all cases) was treated with chloroform (1 mL). The organic layer was analyzed spectrophotometrically.

[2] = Inhibition of linoleic acid lipid peroxidation (AAPH); conditions: % inhibition at 100 μM; pH 7.4, 37 °C
Procedure, shortened: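 Sodium linoleate in 0.05 M phosphate buffer pH 7.4 at 37 °C under air, oxidation started with AAPH as radical initiator. Conjugated diene hydroperoxide formation followed as absorbance increase at 234 nm, with DMSO-matched controls.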

soybean lipoxygenase = molecular target: T1, soybean lipoxygenase (Glycine max, UniProt P08170); test: Soybean lipoxygenase inhibition in vitro; type: biochemical
T1 construct: purchased Sigma Chemical, Co. (St. Louis, MO, USA)
T1 sequence (P08170 1-839): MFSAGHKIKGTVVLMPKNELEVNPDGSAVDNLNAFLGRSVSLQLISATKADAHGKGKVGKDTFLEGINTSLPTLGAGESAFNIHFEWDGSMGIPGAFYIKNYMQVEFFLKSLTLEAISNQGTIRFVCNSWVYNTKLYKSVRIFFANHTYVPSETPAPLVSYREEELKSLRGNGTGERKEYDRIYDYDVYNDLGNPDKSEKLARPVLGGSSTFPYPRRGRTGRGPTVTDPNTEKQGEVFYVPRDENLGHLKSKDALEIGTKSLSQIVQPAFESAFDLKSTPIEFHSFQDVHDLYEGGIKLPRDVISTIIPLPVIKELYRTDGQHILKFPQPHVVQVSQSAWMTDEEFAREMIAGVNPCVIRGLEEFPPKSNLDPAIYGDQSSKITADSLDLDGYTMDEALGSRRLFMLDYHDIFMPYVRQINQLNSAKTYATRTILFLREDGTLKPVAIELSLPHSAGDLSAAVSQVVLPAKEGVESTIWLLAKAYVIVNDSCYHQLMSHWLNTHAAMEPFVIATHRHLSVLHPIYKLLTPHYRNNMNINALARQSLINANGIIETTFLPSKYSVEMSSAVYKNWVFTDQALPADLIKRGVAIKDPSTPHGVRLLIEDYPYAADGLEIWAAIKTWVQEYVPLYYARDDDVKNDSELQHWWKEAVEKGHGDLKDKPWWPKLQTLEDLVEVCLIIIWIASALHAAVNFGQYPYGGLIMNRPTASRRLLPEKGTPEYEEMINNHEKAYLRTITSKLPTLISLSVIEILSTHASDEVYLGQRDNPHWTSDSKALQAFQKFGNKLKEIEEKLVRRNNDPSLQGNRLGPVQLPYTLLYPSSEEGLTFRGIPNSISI
Method: DMSO solution of the tested compound was incubated with sodium linoleate (0.1 mM) and 0.2 mL of soybean lipoxygenase solution (1/9 × 10^−4 w/v in saline) in buffer pH 9 (tris) and at room temperature. […] The results are given in Table 1 expressed as IC50 values or % inhibition at 100 μM.

esterase = test: In vitro esterase activity on hybrids; type: in vitro ADME; conditions: 1 mM, phosphate buffer pH 7.8, 37 °C, 90 min and 24 h
Method: Representative hybrid molecules are subjected to an esterase activity in vitro. 100 μL of 1 mg/mL 0.001 N hydrochloric acid of esterase solution was added to 1,250 μL of phosphate buffer (0.1 M) pH 7.8 including the tested compounds (150 μL in DMSO, final concentration 1 mM) and incubated at 37 °C for 90 min. The incubated solution was allowed to set at room temperature. Then, the absorption was measured at 256 nm. The measurement was repeated after 24 h of incubation at 37 °C.

[3] = tested on: acetic acid-induced writhing; test: Antinociceptive screen (writhing test); type: in vivo, Wistar rats; conditions: i.p. 30 min before 0.6% acetic acid, writhes counted over 30 min

SMILES: CC(=O)Nc1ccc(OC(=O)/C=C/c2cccc(Oc3ccccc3)c2)cc1 [Compound 2a, (E)-4-Acetamidophenyl 3-(3-phenoxyphenyl)acrylate]
- recovering motor and sensory functions (sciatic nerve crush): effective in recovering motor and sensory functions
- stability under acidic and basic conditions [1]: confirmed the stability
- AAPH % (% inhibition of lipid peroxidation) [2]: 90%
- IC50 (soybean lipoxygenase): 100 µM
- hydrolysis of the ester group by esterase (esterase): hydrolyzed
- % ANA (in vivo analgesic-antinociceptive activity) ([3]; 0.01 mmol/0.1 kg): 91 ** %
- inhibition in vivo at 0.01 mmol/0.1 kg ([3]; Rattus norvegicus, ip, 0.5 h, read-out: % ANA (in vivo analgesic-antinociceptive activity)): 91%
